Calls of active or inactive are those of the source. Cut-off read from the data, not from the text of the source: actives have a measured IC50 and inactives only a lower limit.
target: Envelope glycoprotein gp160 (Human immunodeficiency virus 1, UniProt Q6QLK5); assay: cell-free HIV fusion peptide-binding blockers – biochemical, uHTS, fluorescence dequenching, […] (AID 1986)
Sequence (Q6QLK5 whole entry, the tested form may be a part): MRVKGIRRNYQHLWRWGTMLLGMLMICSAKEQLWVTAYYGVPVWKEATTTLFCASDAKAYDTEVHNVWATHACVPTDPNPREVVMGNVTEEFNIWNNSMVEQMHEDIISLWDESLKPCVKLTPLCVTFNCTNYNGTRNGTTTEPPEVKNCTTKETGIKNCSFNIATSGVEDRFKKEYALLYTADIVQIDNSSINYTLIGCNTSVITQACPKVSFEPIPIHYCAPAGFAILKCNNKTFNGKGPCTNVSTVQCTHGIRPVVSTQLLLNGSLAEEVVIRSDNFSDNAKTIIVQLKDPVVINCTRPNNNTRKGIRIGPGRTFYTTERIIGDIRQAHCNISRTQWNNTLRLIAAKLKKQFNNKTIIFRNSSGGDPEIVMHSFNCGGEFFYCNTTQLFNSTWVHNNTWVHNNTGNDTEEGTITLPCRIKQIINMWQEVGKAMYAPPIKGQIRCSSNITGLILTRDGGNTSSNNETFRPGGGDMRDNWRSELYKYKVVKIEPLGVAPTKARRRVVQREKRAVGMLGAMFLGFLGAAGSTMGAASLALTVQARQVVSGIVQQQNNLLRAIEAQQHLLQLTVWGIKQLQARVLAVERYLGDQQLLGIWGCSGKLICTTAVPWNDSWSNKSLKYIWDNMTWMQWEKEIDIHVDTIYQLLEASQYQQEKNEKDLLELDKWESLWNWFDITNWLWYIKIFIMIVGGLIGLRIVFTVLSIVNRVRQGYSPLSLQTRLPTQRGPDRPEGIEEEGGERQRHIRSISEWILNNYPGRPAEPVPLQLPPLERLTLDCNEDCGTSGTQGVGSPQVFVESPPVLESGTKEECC

SMILES	IC50
Cc1cccc(C)c1-n1cccc1/C=C1\SC(=S)N(c2cccc(C(=O)O)c2)C1=O	22.4 µM (active)
CCCOc1ccc(C(=O)NNC(=S)NC(=O)c2cc(-c3ccccc3)nc3ccccc23)cc1	30.9 µM (active)
CCC(C)(C)C1CCc2c(sc(NC(=O)c3ccccc3C(=O)O)c2C#N)C1 (stereo not drawn)	12.9 µM (active)
